Data taken from ChEMBL document CHEMBL6087385, “Synthesis and biological evaluation of Ribo 7-N/O/S pyrimidine 9-deaza C-nucleoside analogs as new antiviral agents for inhibiting HCV RNA-dependent RNA polymerases” (Eur J Med Chem, 2024).

Key:
[1] = Oral bioavailability in Sprague-Dawley rat at 10 mg/kg by reverse phase chromatography; type: ADME, organism-based; conditions: in vivo
[2] = Genotoxicity in human Lymphocyte assessed as induction of chromosomal aberration upto 3000 ug/ml; type: toxicity, cell-based; conditions: dose < 3000 µg/ml
[3] = Toxicity in Cynomolgus monkey assessed as change in ECG at 100 to 500 mg/kg, po administered as single dose; type: organism-based, Macaca fascicularis; conditions: in vivo, dose 100-500 mg/kg
[4] = Metabolic stability in human liver microsome assessed as half life in presence of NADPH; type: ADME; conditions: liver microsomes
[5] = Toxicity in dog assessed as increase in QTc interval at 1 to 5 mg/kg, po measured after 3 hrs; type: organism-based, Canis lupus familiaris; conditions: in vivo, dose 1-5 mg/kg
[6] = Volume of distribution in female mouse at 1 mg/kg, iv by reverse phase chromatography; type: ADME, organism-based; conditions: in vivo
[7] = Genotoxicity in CD-1(ICR)BR mouse assessed as increase in polychromatic erythrocytes at 500 to 2000 mg/kg, po measured after 48 hrs by micronucleus assay; type: toxicity, organism-based; conditions: in vivo, dose 500-2000 mg/kg
[8] = Toxicity in rat assessed as effect on clinical observations at 1 to 9 mg/kg, po; type: organism-based; conditions: in vivo, dose 1-9 mg/kg
[9] = Half life in Sprague-Dawley rat at 1 mg/kg, iv by reverse phase chromatography; type: ADME, organism-based; conditions: in vivo
[10] = AUC in female mouse at 5 mg/kg, po by reverse phase chromatography; type: ADME, organism-based; conditions: in vivo
[11] = Half life in Sprague-Dawley rat at 5 mg/kg, po by reverse phase chromatography; type: ADME, organism-based; conditions: in vivo
Hepatitis C virus [12] = test: Anti-viral activity against HCV genotype 2a infected in Lunet-CD81 cells; type: functional, organism-based, Hepacivirus hominis
[13] = Drug concentration in Sprague-Dawley rat liver at 2 mg/kg, iv measured upto 24 hrs in presence of ATP by LC-MS/MS analysis; type: ADME, organism-based; conditions: read-out: Ct
Hepatitis C virus [14] = test: Anti-viral activity against HCV genotype 1b infected in human Huh-luc cells; type: functional, organism-based, Hepacivirus hominis
[15] = Half life in female mouse at 1 mg/kg, iv by reverse phase chromatography; type: ADME, organism-based; conditions: in vivo
[16] = Drug metabolism in human Huh-luc/neo cells assessed as triphosphate metabolite formation at 10 uM measured after 24 hrs by HPLC-MS analysis; type: ADME, cell-based
[17] = Half life in Cynomolgus monkey at 10 mg/kg, po administered for 7 days by reverse phase chromatography; type: ADME, organism-based, Macaca fascicularis; conditions: in vivo, time 7 day
[18] = Toxicity in Sprague-Dawley rat assessed as anogenital staining at 90 mg/kg, po administered as single dose and measured after 14 days; type: organism-based; conditions: in vivo, 336 h, time 14 day
[19] = Toxicity in Sprague-Dawley rat assessed as weight loss at 100 mg/kg, po administered as single dose and measured after 14 days; type: organism-based; conditions: in vivo, 336 h, time 14 day
[20] = Drug metabolism in human Hepatocyte cells assessed as triphosphate metabolite formation at 10 uM measured upto 24 hrs by HPLC-MS analysis; type: ADME, cell-based; conditions: hepatocytes
[21] = Toxicity in Sprague-Dawley rat assessed as lethargy at 250 mg/kg, po administered as single dose and measured after 14 days; type: organism-based; conditions: in vivo, 336 h, time 14 day
[22] = Oral bioavailability in Cynomolgus monkey at 10 mg/kg administered for 7 days by reverse phase chromatography; type: ADME, organism-based, Macaca fascicularis; conditions: in vivo, time 7 day
[23] = Toxicity in rat assessed as change in body weight at 1 to 9 mg/kg, po; type: organism-based; conditions: in vivo, dose 1-9 mg/kg
[24] = Volume of distribution in Sprague-Dawley rat at 1 mg/kg, iv by reverse phase chromatography; type: ADME, organism-based; conditions: in vivo
[25] = molecular target: hERG potassium channel (KCNH2) (Homo sapiens, UniProt Q12809); test: Inhibition of hERG potassium channel expressed in HEK cells at 100 uM relative to control; type: toxicity, cell-based; conditions: HEK cells expressing hERG
[26] = Toxicity in Cynomolgus monkey assessed as emesis at 250 to 500 mg/kg, po administered as single dose; type: organism-based, Macaca fascicularis; conditions: in vivo, dose 250-500 mg/kg
[27] = Cmax in Sprague-Dawley rat at 5 mg/kg, po by reverse phase chromatography; type: ADME, organism-based; conditions: in vivo
[28] = AUC in Cynomolgus monkey at 1 mg/kg, iv by reverse phase chromatography; type: ADME, organism-based, Macaca fascicularis; conditions: in vivo
[29] = Metabolic stability in cryopreserved rat hepatocyte assessed as half life in presence of NADPH; type: ADME, cell-based; conditions: cryopreserved hepatocytes
[30] = Tmax in Sprague-Dawley rat at 10 mg/kg, po by reverse phase chromatography; type: ADME, organism-based; conditions: in vivo
[31] = Half life in Sprague-Dawley rat at 10 mg/kg, po by reverse phase chromatography; type: ADME, organism-based; conditions: in vivo
[32] = Tmax in female mouse at 1 mg/kg, iv by reverse phase chromatography; type: ADME, organism-based; conditions: in vivo
[33] = Metabolic stability in rat liver microsome assessed as half life in presence of NADPH; type: ADME; conditions: liver microsomes
[34] = Toxicity in Sprague-Dawley rat assessed as lethargy at 90 mg/kg, po administered as single dose and measured after 14 days; type: organism-based; conditions: in vivo, 336 h, time 14 day
[35] = Cmax in Cynomolgus monkey at 10 mg/kg, po administered for 7 days by reverse phase chromatography; type: ADME, organism-based, Macaca fascicularis; conditions: in vivo, time 7 day
[36] = Clearance in Sprague-Dawley rat at 1 mg/kg, iv by reverse phase chromatography; type: ADME, organism-based; conditions: in vivo
[37] = AUC in Sprague-Dawley rat at 1 mg/kg, iv by reverse phase chromatography; type: ADME, organism-based; conditions: in vivo
[38] = AUC in Sprague-Dawley rat at 10 mg/kg, po by reverse phase chromatography; type: ADME, organism-based; conditions: in vivo
[39] = Metabolic stability in cryopreserved dog hepatocyte assessed as half life in presence of NADPH; type: ADME, cell-based, Canis lupus familiaris; conditions: cryopreserved hepatocytes
[40] = Toxicity in Sprague-Dawley rat assessed as diarrhea at 250 mg/kg, po administered as single dose and measured after 14 days; type: organism-based; conditions: in vivo, 336 h, time 14 day
[41] = Cmax in Cynomolgus monkey at 1 mg/kg, iv by reverse phase chromatography; type: ADME, organism-based, Macaca fascicularis; conditions: in vivo, time 7 day
[42] = Drug level in Sprague-Dawley rat liver assessed as triphosphate metabolite concentration at 2 mg/kg, iv measured after 1 hr in presence of ATP by LC-MS/MS analysis; type: ADME, organism-based; conditions: in vivo, read-out: Ct
[43] = Tmax in Sprague-Dawley rat at 5 mg/kg, po by reverse phase chromatography; type: ADME, organism-based; conditions: in vivo
[44] = Toxicity in Sprague-Dawley rat assessed as lethargy at 100 mg/kg, po administered as single dose and measured after 14 days; type: organism-based; conditions: in vivo, 336 h, time 14 day
[45] = Toxicity in dog assessed as effect on […] function at 1 to 5 mg/kg, po administered for 3 hr post dose by electrocardiogram analysis; type: organism-based, Canis lupus familiaris; conditions: in vivo, dose 1-5 mg/kg
[46] = Cmax in Sprague-Dawley rat at 10 mg/kg, po by reverse phase chromatography; type: ADME, organism-based; conditions: in vivo
[47] = Toxicity in Sprague-Dawley rat assessed as anogenital staining at 100 mg/kg, po administered as single dose and measured after 14 days; type: organism-based; conditions: in vivo, 336 h, time 14 day
[48] = Metabolic stability in dog liver microsome assessed as half life in presence of NADPH; type: ADME, Canis lupus familiaris; conditions: liver microsomes
[49] = Toxicity in po dosed rat assessed as no observable adverse effect level; type: organism-based; conditions: in vivo
[50] = AUC (0 to infinity) in Sprague-Dawley rat at 1 mg/kg, iv by reverse phase chromatography; type: ADME, organism-based; conditions: in vivo
[51] = Toxicity in rat assessed as effect on respiratory endpoint at 1 to 9 mg/kg, po; type: organism-based; conditions: in vivo, dose 1-9 mg/kg

Sequence of hERG potassium channel (KCNH2) (Q12809 whole entry): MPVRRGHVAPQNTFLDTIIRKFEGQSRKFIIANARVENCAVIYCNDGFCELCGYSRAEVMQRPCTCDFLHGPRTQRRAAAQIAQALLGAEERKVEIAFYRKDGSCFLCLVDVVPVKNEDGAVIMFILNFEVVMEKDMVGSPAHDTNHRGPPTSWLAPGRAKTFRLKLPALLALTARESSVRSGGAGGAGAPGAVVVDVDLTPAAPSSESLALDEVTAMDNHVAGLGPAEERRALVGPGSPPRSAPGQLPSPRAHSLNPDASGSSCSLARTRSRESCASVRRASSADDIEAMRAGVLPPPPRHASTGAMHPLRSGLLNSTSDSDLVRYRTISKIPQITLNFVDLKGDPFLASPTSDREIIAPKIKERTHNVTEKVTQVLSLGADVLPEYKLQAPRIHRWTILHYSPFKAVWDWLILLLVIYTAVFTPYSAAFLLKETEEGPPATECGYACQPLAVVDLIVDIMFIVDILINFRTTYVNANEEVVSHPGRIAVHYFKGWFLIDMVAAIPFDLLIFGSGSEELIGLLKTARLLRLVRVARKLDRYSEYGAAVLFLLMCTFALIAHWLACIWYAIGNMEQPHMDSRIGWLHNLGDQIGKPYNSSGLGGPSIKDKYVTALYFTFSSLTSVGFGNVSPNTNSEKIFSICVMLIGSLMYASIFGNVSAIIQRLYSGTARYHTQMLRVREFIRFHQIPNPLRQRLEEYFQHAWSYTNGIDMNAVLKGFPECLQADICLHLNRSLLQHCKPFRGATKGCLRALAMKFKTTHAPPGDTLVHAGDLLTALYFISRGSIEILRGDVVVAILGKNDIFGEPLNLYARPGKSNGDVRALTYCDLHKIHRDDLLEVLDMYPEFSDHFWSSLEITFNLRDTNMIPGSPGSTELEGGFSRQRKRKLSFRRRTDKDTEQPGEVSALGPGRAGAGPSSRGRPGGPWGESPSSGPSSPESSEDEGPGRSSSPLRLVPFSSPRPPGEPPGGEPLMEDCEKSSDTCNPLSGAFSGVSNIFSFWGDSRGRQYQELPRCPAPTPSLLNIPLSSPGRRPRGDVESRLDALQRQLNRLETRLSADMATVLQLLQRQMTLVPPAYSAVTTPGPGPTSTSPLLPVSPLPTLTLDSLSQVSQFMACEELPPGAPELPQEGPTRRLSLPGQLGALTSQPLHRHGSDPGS

C[C@@]1(O)[C@H](O)[C@@H](CO)O[C@H]1c1coc2c(N)ncnc12
bioavailability [1]: 71.2%
Activity [2]: Non-toxic
Activity [3]: Non-toxic
half-life [4]: > 1.67 h
Activity [5]: Non-toxic
Vd [6]: 22.4 L/kg
Activity [7]: Toxic
Activity [8]: Non-toxic
half-life [9]: 28.4 h
AUC [10]: 3250 ng·h/mL
half-life [11]: 9.18 h
EC50 (Hepatitis C virus [12]): > 50 µM
concentration at 24 h [13]: 0.42 µM
EC50 (Hepatitis C virus [14]): 4.7 µM
half-life [15]: 22.3 h
Drug metabolism [16]: metabolite_detected
half-life [17]: 26.3 h
Activity [18]: Non-toxic
Activity [19]: Non-toxic
Drug metabolism [20]: metabolite_detected
Activity [21]: Non-toxic
bioavailability [22]: 37.6%
Activity [23]: Non-toxic
Vd [24]: 33.2 L/kg
inhibition at 100 µM [25]: 1.3%
Activity [26]: Toxic
Cmax [27]: 593 ng/mL
AUC [28]: 1930 ng·h/mL
half-life [29]: > 1 h
Tmax [30]: 0.5 h
half-life [31]: 8.86 h
Tmax [32]: 4.98 min
half-life [33]: > 1.67 h
Activity [34]: Non-toxic
Cmax [35]: 2510 ng/mL
clearance [36]: 17.6 mL/min/kg
AUC [37]: 699 ng·h/mL
AUC [38]: 4980 ng·h/mL
half-life [39]: > 1 h
Activity [40]: Non-toxic
Cmax [41]: 3200 ng/mL
concentration [42]: 22.6 µM
Tmax [43]: 0.5 h
Activity [44]: Non-toxic
Activity [45]: Non-toxic
Cmax [46]: 1180 ng/mL
Activity [47]: Non-toxic
half-life [48]: > 1.67 h
NOAEL [49]: ≤ 9 mg/kg
AUC(0-inf) [50]: 947 ng·h/mL
Activity [51]: Non-toxic
